In patent US10206944B2, “Chondroitin for use in medicine” (ALTERGON S.A., priority 2012, dated 2019):

Columns and labels:
[1] = system: Escherichia coli strain ATCC 25922; experiment: Inhibition of bacterial growth on plate, E. coli; format: cell-based
Procedure: The antibacterial activity of chondroitin (C) and chondroitin sulphate (CS) on the growth of Escherichia coli ATCC 25922 and Enterococcus faecalis ATCC 19433 on a solid medium in vitro was examined. The concentrations explored ranged from 40 μg/mL to 40 mg/mL of C or CS as final concentrations in the medium. Brain-heart infusion (Oxoid) was used as culture medium for E. coli ATCC 25922, and M17 (Oxoid) for E. faecalis ATCC 19433; both media were adjusted to the same pH and the same osmolarity before being solidified by adding agar and cooled. 100 μL of a bacterial suspension containing 10^2, 10^3 or 10^4 bacteria/mL was plated as inoculum. The plates inoculated were incubated in shakers in air at 37° C. for 16 h. The number of colonies was then counted on control plates in the absence of the substances under study and on plates at the various concentrations of C and CS. The data from the experiments for the two micro-organisms, conducted in triplicate for each of the conditions, are shown in tables 7 and 8.

mini-pig dorsal wounds = experiment: Wound repair in the mini-pig, topical treatment; format: in vivo; parameters: key to d) Histological evaluation of biopsies after 4 weeks / e) Histological evaluation of biopsies after 6 weeks: collagen organisation 1-3; 3 = best healing, 1 = parallel bundles; settings: for a) Evaluation of wound quality after 4 weeks: 2.5 mL twice a day, 5 excellent; for a) Evaluation of wound quality after 4 weeks / b) Evaluation of wound quality after 6 weeks: 5-point scale; for d) Histological evaluation of biopsies after 4 weeks / e) Histological evaluation of biopsies after 6 weeks: collagen organisation, 3-point scale; for c) Histopathological evaluation after 6 weeks: scale of 1 to 3, 3 optimum healing
Excerpt: The mini-pig (an animal weighing 25-28 Kg), a model whose validity for wound-repair studies is widely recognised, was used as experimental model to evaluate the ability of chondroitin to accelerate the repair process of damaged skin tissue. Operating under general anaesthetic from the back of the animals, the hair was shaved and the shaven area was washed thoroughly with a 10% solution of iodine-polyvinylpyrrolidone complex and then with isopropyl alcohol. 12 elliptical wounds, six on each side, 20 mm long and 6 mm wide, were made on the shaven, disinfected backs of the animals. The wounds penetrated as far as the subcutaneous fat, about 4 cm from the median line of the back, with the longer side of the wound parallel to the spinal line. The incisions were then sewn with two stitches to close the dermal plane. The superficial stitches were removed after about 7 days. The wounds were covered with a non-adhesive dressing secured with sticking plaster, and the body of the animals was protected with an elastic bandage. Eight animals were selected and divided into two groups of 4, treated topically with chondroitin (first group) or chondroitin sulphate (second group), as described in the protocol shown in Table 11. Starting from the head of the animal, the first two wounds on both sides were treated with the carrier alone, consisting of 2.5 mL of saline, the second two on both sides were treated with 2.5 mL of a 30 mg/mL solution of chondroitin in saline (first group) or with 2.5 mL of a 30 mg/mL solution of chondroitin sulphate in saline (second group), and the third two on both sides were treated with 2.5 mL of a 60 mg/mL solution of chondroitin in saline (first group) or 2.5 mL of a 60 mg/mL solution of chondroitin sulphate in saline (second group). The treatment was performed by slowly dripping the solution into the wound twice a day and dabbing with a gauze dressing, which was then used to cover the wound so that the active ingredient remained in situ for longer. The study continued for 6 weeks, after which the animals were euthanized. A biopsy of about 4 mm was taken after 4 weeks, while the entire areas of the 12 dorsal wounds were removed from the euthanized animals for histological tests. The following evaluations were performed on the treated animals:
a) an evaluation after 4 and 6 weeks by 4 dermatologists who independently assessed the quality of the wound (colour, texture, edges, distortion) and the appearance of the surrounding tissue on a 5-point scale;
b) a pathological evaluation on a scale of 1 to 3 conducted by two veterinary surgeons on the tissue removed after the animals were euthanized, to evaluate the presence of abnormal histopathological situations (quantity of granulation tissue and inflammatory response, with a score from 3 for optimum healing to 1 for ongoing inflammatory symptoms and abundant granulation tissue);
c) a histological analysis of the 4-week biopsies and the tissue removed after the animals were euthanized, conducted by two histologists operating independently, who evaluated the organisation of the collagen on a 3-point scale. An organisation of the collagen fibres similar to the normal model, but smaller than normal dermis (the best healing), scored 3 points, an intermediate arrangement of the fibre weave scored 2 points, and several fibres arranged in parallel bundles or on a plane scored 1 point.

dogs suffering from DJD = experiment: Treatment of degenerative joint disease in dogs; format: in vivo, dog; settings: dogs with DJD, 15 mg/Kg/day with food, 6 months; scale of 1 to 10; placebo 2.5±1.3
Procedure: The therapeutic potential of chondroitin in the treatment of joint disease was evaluated in the dog, an experimental model wherein degenerative or inflammatory orthopaedic problems associated with degenerative joint disease (DJD) are particularly recurrent at both young and geriatric age.
The study was conducted on 90 animals with a mean weight of 30±10 Kg, a mean age of about 8 years, of different breeds, both males and females, all suffering from DJD of the shoulder, hip and/or stifle, randomised into three groups of 30 animals treated with 15 mg/Kg/day of chondroitin (C group), 15 mg/Kg/day of chondroitin sulphate (CS group) or 15 mg/Kg/day of starch (placebo group). The animals received the daily dose with their food. An X-ray and a set of diagnostic tests for DJD were conducted on a preliminary basis on all the animals included in the study. […] The study continued for 6 months; during the treatment, the animals, which were cared for by their owners, were monitored by three veterinary surgeons who independently evaluated the state of the animals. Every month the animals' owners and the three veterinary surgeons filled in a questionnaire, allocating a score on a scale of 1-5 to a set of parameters. Once a month the owners evaluated, on a scale of 1 to 5, the lameness of the animal, its willingness to play, load tolerance, and behaviour indicating pain symptoms. […]

[2] = 40 μg/mL, 10 bacteria inoculated
[3] = 40 μg/mL, 100 bacteria inoculated
[4] = 40 μg/mL, 1000 bacteria inoculated
[5] = 400 μg/mL, 10 bacteria inoculated
[6] = 400 μg/mL, 100 bacteria inoculated
[7] = 400 μg/mL, 1000 bacteria inoculated
[8] = 4 mg/mL, 10 bacteria inoculated
[9] = 4 mg/mL, 100 bacteria inoculated
[10] = 4 mg/mL, 1000 bacteria inoculated
[11] = 40 mg/mL, 10 bacteria inoculated
[12] = 40 mg/mL, 100 bacteria inoculated
[13] = 40 mg/mL, 1000 bacteria inoculated

“chondroitin sulphate [CS, reference compound]” was tested, and the Inhibition factor ([1]; 40 μg/mL) was 1, the “CFU after 16 h” value [1, 2] was 7 ± 2 CFU and the “CFU after 16 h” value [1, 3] was 85 ± 7 CFU. For the same substance, the “CFU after 16 h” value [1, 4] was 860 ± 70 CFU, the Inhibition factor ([1]; 400 μg/mL) was 2 and the “Qualitative valuation of inhibition” value ([1]; 400 μg/mL) was “mild”. For the same substance, the “CFU after 16 h” value [1, 5] was 5 ± 1 CFU, the “CFU after 16 h” value [1, 6] was 50 ± 5 CFU and the “CFU after 16 h” value [1, 7] was 400 ± 70 CFU. The Inhibition factor ([1]; 4 mg/mL) was 10, the “Qualitative valuation of inhibition” value ([1]; 4 mg/mL) was “significant” and the “CFU after 16 h” value [1, 8] was 0 CFU. The “CFU after 16 h” value [1, 9] was 9 ± 2 CFU, the “CFU after 16 h” value [1, 10] was 100 ± 10 CFU and the Inhibition factor ([1]; 40 mg/mL) was 330. For the same substance, the “Qualitative valuation of inhibition” value ([1]; 40 mg/mL) was “high”, the “CFU after 16 h” value [1, 11] was 0 CFU and the “CFU after 16 h” value [1, 12] was 0 CFU. For the same substance, the “CFU after 16 h” value [1, 13] was 3 ± 1 CFU, the “a) Evaluation of wound quality after 4 weeks” value (mini-pig dorsal wounds; 30 mg/mL) was 2.6 ± 0.2 and the “b) Evaluation of wound quality after 6 weeks” value (mini-pig dorsal wounds; 30 mg/mL) was 3.4 ± 0.3. For the same substance, the “d) Histological evaluation of biopsies after 4 weeks” value (mini-pig dorsal wounds; 30 mg/mL) was 1.3 ± 0.1, the “e) Histological evaluation of biopsies after 6 weeks” value (mini-pig dorsal wounds; 30 mg/mL) was 1.7 ± 0.2 and the “c) Histopathological evaluation after 6 weeks” value (mini-pig dorsal wounds; 30 mg/mL) was 1.7 ± 0.2. For the same substance, the “a) Evaluation of wound quality after 4 weeks” value (mini-pig dorsal wounds; 60 mg/mL) was 2.9 ± 0.2, the “b) Evaluation of wound quality after 6 weeks” value (mini-pig dorsal wounds; 60 mg/mL) was 3.7 ± 0.3 and the “d) Histological evaluation of biopsies after 4 weeks” value (mini-pig dorsal wounds; 60 mg/mL) was 1.3 ± 0.1. For the same substance, the “e) Histological evaluation of biopsies after 6 weeks” value (mini-pig dorsal wounds; 60 mg/mL) was 1.7 ± 0.1, the “c) Histopathological evaluation after 6 weeks” value (mini-pig dorsal wounds; 60 mg/mL) was 2.3 ± 0.2 and the “average overall score for the regression of the disease” value (dogs suffering from DJD) was 5.3±2.3.
In the case of chondroitin, the Inhibition factor ([1]; 40 μg/mL) is reported as 1.3, the “Qualitative valuation of inhibition” value ([1]; 40 μg/mL) is reported as “mild” and the “CFU after 16 h” value [1, 2] is reported as 7 ± 2 CFU. The “CFU after 16 h” value [1, 3] was 80 ± 5 CFU, the “CFU after 16 h” value [1, 4] was 800 ± 70 CFU and the Inhibition factor ([1]; 400 μg/mL) was 9. For the same substance, the “Qualitative valuation of inhibition” value ([1]; 400 μg/mL) was “significant”, the “CFU after 16 h” value [1, 5] was 2 ± 1 CFU and the “CFU after 16 h” value [1, 6] was 10 ± 2 CFU. The “CFU after 16 h” value [1, 7] was 120 ± 30 CFU, the Inhibition factor ([1]; 4 mg/mL) was 66 and the “Qualitative valuation of inhibition” value ([1]; 4 mg/mL) was “high”. For the same substance, the “CFU after 16 h” value [1, 8] was 0 CFU, the “CFU after 16 h” value [1, 9] was 1 ± 1 CFU and the “CFU after 16 h” value [1, 10] was 20 ± 4 CFU. For the same substance, the Inhibition factor ([1]; 40 mg/mL) was 1000, the “Qualitative valuation of inhibition” value ([1]; 40 mg/mL) was “total inhibition of growth” and the “CFU after 16 h” value [1, 11] was 0 CFU. For the same substance, the “CFU after 16 h” value [1, 12] was 0 CFU, the “CFU after 16 h” value [1, 13] was 0 CFU and the “a) Evaluation of wound quality after 4 weeks” value (mini-pig dorsal wounds; 30 mg/mL) was 3.8 ± 0.4. The “b) Evaluation of wound quality after 6 weeks” value (mini-pig dorsal wounds; 30 mg/mL) was 4.5 ± 0.3, the “d) Histological evaluation of biopsies after 4 weeks” value (mini-pig dorsal wounds; 30 mg/mL) was 2.3 ± 0.2 and the “e) Histological evaluation of biopsies after 6 weeks” value (mini-pig dorsal wounds; 30 mg/mL) was 2.7 ± 0.1. For the same substance, the “c) Histopathological evaluation after 6 weeks” value (mini-pig dorsal wounds; 30 mg/mL) was 2.3 ± 0.1, the “a) Evaluation of wound quality after 4 weeks” value (mini-pig dorsal wounds; 60 mg/mL) was 4.1 ± 0.3 and the “b) Evaluation of wound quality after 6 weeks” value (mini-pig dorsal wounds; 60 mg/mL) was 4.9 ± 0.1. For the same substance, the “d) Histological evaluation of biopsies after 4 weeks” value (mini-pig dorsal wounds; 60 mg/mL) was 2.7 ± 0.1, the “e) Histological evaluation of biopsies after 6 weeks” value (mini-pig dorsal wounds; 60 mg/mL) was 3.0 ± 0.2 and the “c) Histopathological evaluation after 6 weeks” value (mini-pig dorsal wounds; 60 mg/mL) was 3.0 ± 0.2. The “average overall score for the regression of the disease” value (dogs suffering from DJD) was 8.5±2.1.
